Patent US11352361B2, “Compounds useful as RET inhibitors” (Cancer Research Technology Limited, priority 2017, dated 2022)

target: RET (Homo sapiens (Human), UniProt P07949); assay: RET enzyme assay (CisBio HTRF kinEASE); type: biochemical; conditions: RET/KDR enzyme and cell assays
Sequence (P07949 658-1114): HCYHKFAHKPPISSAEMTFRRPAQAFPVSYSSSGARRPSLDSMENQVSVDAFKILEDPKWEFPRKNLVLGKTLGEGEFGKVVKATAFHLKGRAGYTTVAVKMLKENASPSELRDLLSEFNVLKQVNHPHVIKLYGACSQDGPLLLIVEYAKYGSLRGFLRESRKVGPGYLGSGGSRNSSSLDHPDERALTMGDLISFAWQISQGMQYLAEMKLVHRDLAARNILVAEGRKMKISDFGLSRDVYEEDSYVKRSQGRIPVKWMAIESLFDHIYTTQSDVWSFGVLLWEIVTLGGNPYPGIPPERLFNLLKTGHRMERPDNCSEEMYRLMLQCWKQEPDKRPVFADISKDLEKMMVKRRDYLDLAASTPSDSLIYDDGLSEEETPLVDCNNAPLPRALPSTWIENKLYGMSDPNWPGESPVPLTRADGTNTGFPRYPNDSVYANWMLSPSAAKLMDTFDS

| desired activity in the assays described in Example 51 | Compound |
| --- | --- |
| did not exhibit the desired activity | CNC(=O)c1cc2ccc(-c3nn(CC(=O)N(C)C)c4ncnc(N)c34)cc2[nH]1 [6-[4-amino-1-[2-(dimethylamino)-2-oxo-ethyl]pyrazolo[3,4-d]pyrimidin-3-yl]-N-methyl-1H-indole-2-carboxamide] |
| did not exhibit the desired activity | CNC(=O)c1cc2ccc(-c3nn(CCC(=O)N(C)C)c4ncnc(N)c34)cc2[nH]1 [6-[4-amino-1-[3-(dimethylamino)-3-oxo-propyl]pyrazolo[3,4-d]pyrimidin-3-yl]-N-methyl-1H-indole-2-carboxamide] |
| did not exhibit the desired activity | CNC(=O)c1cc2ccc(-c3n[nH]c4ncnc(N)c34)cc2[nH]1 [6-(4-amino-1H-pyrazolo[3,4-d]pyrimidin-3-yl)-N-methyl-1H-indole-2-carboxamide] |
| did not exhibit the desired activity | CNC(=O)c1cc2ccc(-c3nn(CCO)c4ncnc(N)c34)cc2[nH]1 [6-[4-amino-1-(2-hydroxyethyl)pyrazolo[3,4-d]pyrimidin-3-yl]-N-methyl-1H-indole-2-carboxamide] |
| did not exhibit the desired activity | CC(C)(C)n1nc(-c2ccc3cc(C(=O)Nc4nnc(C(F)(F)F)s4)[nH]c3c2)c2c(N)ncnc21 [6-(4-amino-1-tert-butyl-pyrazolo[3,4-d]pyrimidin-3-yl)-N-[5-(trifluoromethyl)-1,3,4-thiadiazol-2-yl]-1H-indole-2-carboxamide] |
| did not exhibit the desired activity | CC(C)(C)n1nc(-c2ccc3cc(C(=O)O)[nH]c3c2)c2c(N)ncnc21 [6-(4-amino-1-tert-butyl-pyrazolo[3,4-d]pyrimidin-3-yl)-1H-indole-2-carboxylic acid] |
| did not exhibit the desired activity | CCNC(=O)c1cc2ccc(-c3nn([C@H]4CC[C@@H](O)C4)c4ncnc(NC)c34)cc2[nH]1 [N-ethyl-6-[1-[(1 S,3R)-3-hydroxycyclopentyl]-4-(methylamino)pyrazolo[3,4-d]pyrimidin-3-yl]-1H-indole-2-carboxamide] |

target: KDR (Homo sapiens (Human), UniProt P35968); assay: KDR enzyme assay (CisBio HTRF kinEASE); type: biochemical; conditions: ATP at Km, 15 mins pre-incubation
Sequence (P35968 790-1356): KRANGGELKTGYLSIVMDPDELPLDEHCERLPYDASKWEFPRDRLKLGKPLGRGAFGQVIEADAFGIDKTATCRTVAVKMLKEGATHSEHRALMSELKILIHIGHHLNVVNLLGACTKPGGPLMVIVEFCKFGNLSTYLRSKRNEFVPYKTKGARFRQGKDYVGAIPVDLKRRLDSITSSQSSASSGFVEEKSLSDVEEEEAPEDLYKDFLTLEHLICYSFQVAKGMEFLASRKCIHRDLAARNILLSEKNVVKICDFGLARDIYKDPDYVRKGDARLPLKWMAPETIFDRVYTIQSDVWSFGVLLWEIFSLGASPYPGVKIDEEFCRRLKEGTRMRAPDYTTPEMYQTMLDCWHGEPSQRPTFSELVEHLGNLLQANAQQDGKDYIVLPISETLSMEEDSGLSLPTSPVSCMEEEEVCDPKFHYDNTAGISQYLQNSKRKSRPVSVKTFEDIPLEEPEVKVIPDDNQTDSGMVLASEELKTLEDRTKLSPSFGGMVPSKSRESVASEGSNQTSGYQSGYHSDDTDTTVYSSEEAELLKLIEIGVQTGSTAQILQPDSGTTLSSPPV

| Compound | IC50 |
| --- | --- |
| CC(C)(C)n1nc(-c2ccc3cc(C(=O)NCC(F)(F)F)[nH]c3c2)c2c(N)ncnc21 [Example 11, 6-(4-Amino-1-tert-butyl-pyrazolo[3,4-d]pyrimidin-3-yl)-N-(2,2,2-trifluoroethyl)-1H-indole-2-carboxamide] | 150000 nM |

target: BaF3 cells expressing KIF5B-RET (Homo sapiens, UniProt P07949); assay: BaF3 cell assay, KIF5B-RET (CellTiter-Glo viability); type: cell-based; conditions: 48 hours incubation
Sequence (P07949 29-1114 limits assumed, change not shown): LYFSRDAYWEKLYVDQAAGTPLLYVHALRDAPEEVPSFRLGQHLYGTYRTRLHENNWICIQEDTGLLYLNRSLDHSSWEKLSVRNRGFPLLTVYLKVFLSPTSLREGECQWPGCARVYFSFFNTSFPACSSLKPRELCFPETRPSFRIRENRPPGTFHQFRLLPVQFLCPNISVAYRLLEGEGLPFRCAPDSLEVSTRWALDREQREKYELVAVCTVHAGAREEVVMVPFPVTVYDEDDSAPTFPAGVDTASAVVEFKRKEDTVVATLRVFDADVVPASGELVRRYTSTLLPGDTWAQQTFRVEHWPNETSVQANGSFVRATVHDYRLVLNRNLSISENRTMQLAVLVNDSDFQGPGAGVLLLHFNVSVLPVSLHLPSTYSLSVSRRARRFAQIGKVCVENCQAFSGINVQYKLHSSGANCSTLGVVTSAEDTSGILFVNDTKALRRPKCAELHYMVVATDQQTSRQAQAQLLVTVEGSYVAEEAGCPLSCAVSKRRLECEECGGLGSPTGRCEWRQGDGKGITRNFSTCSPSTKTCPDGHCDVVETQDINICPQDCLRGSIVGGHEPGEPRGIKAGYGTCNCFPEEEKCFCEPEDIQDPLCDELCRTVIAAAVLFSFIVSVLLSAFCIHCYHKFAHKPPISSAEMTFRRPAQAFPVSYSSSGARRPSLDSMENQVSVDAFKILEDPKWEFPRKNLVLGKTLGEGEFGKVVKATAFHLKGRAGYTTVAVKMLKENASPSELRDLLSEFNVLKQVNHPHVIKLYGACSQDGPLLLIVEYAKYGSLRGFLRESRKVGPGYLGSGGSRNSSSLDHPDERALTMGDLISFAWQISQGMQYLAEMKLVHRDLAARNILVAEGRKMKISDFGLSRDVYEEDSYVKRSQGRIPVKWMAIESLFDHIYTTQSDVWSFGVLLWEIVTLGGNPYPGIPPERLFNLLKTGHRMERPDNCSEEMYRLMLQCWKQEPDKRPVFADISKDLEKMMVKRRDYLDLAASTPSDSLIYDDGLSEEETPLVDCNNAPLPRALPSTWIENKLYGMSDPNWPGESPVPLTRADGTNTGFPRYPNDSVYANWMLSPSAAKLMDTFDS

| Compound | IC50 |
| --- | --- |
| CC(C)(C)n1nc(-c2ccc3cc(C(=O)Nc4nccs4)[nH]c3c2)c2c(N)ncnc21 [Example 1, 6-(4-Amino-1-tert-butyl-pyrazolo[3,4-d]pyrimidin-3-yl)-N-thiazol-2-yl-1H-indole-2-carboxamide] | 83.6 nM |
| Cc1csc(NC(=O)c2cc3ccc(-c4nn(C(C)(C)C)c5ncnc(N)c45)cc3[nH]2)n1 [Example 26, 6-(4-Amino-1-tert-butyl-pyrazolo[3,4-d]pyrimidin-3-yl)-N-(4-methylthiazol-2-yl)-1H-indole-2-carboxamide] | 912 nM |
| CNC(=O)c1cc2ccc(-c3nn(C4CC4)c4ncnc(N)c34)cc2[nH]1 [Example 50, 6-(4-Amino-1-cyclopropyl-pyrazolo[3,4-d]pyrimidin-3-yl)-N-methyl-1H-indole-2-carboxamide] | 222 nM |

target: BaF3 cells expressing KDR (Homo sapiens, UniProt P35968, cells depend on it, form not given); assay: not given; conditions: read-out: KDR Cell IC50; 48 hours incubation
Sequence (P35968 20-1356 limits assumed, change not shown): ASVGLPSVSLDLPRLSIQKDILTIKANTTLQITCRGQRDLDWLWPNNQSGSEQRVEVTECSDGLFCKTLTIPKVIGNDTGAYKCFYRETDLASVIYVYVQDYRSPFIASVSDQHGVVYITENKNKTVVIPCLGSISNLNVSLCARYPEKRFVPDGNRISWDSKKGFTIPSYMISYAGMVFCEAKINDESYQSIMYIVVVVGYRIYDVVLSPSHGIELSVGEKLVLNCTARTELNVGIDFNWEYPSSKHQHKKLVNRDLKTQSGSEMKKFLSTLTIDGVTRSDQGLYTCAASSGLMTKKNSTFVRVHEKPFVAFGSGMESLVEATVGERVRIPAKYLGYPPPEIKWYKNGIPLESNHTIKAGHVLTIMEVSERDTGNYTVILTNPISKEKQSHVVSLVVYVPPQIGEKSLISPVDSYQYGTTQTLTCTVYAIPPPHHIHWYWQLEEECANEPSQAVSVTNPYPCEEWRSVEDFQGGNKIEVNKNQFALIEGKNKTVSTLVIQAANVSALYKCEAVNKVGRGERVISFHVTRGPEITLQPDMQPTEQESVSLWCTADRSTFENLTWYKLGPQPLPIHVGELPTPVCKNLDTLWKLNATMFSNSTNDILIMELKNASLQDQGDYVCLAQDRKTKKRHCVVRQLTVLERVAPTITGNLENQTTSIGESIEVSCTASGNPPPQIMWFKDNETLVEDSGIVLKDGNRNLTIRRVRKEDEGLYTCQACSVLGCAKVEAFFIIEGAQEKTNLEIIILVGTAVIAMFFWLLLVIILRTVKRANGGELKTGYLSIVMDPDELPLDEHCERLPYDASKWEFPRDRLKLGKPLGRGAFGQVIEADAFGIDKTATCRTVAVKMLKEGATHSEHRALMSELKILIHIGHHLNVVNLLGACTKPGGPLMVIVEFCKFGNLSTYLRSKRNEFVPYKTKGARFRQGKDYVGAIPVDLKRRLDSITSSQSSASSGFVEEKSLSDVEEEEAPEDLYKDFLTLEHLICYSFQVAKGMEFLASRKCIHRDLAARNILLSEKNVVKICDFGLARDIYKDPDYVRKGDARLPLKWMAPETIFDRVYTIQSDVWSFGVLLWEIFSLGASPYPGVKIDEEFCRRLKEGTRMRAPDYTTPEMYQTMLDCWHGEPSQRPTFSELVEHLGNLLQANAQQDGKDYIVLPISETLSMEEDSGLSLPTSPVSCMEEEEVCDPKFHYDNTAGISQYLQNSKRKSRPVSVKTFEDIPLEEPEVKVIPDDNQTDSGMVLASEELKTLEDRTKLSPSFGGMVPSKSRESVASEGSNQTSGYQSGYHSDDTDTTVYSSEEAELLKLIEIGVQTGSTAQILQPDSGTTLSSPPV

| Compound | IC50 |
| --- | --- |
| CC(C)n1nc(-c2ccc3cc(C(=O)Nc4nccs4)[nH]c3c2)c2c(N)ncnc21 [Example 37, 6-(4-Amino-1-isopropyl-pyrazolo[3,4-d]pyrimidin-3-yl)-N-thiazol-2-yl-1H-indole-2-carboxamide] | 702 nM |
| CC(C)(C)n1nc(-c2ccc3cc(C(=O)NCC(F)(F)F)[nH]c3c2)c2c(N)ncnc21 [Example 11, 6-(4-Amino-1-tert-butyl-pyrazolo[3,4-d]pyrimidin-3-yl)-N-(2,2,2-trifluoroethyl)-1H-indole-2-carboxamide] | 4260 nM |
